Marks after values point to notes of the source that are not given here.
How the values were obtained:
[1] = system: rabbit VX2 liver tumor animal model; test: Cisplatin plus composition 3-preparation in rabbit VX2 liver tumor model (Example 34); type: in vivo, New Zealand rabbits; conditions: cisplatin 4 mg/kg once a week alone, 4 weeks
Description: SPF grade New Zealand rabbits, 4-8 weeks old, 1.8-2.2 kg, with a standard diet and free access to water, were kept in an environment of 12-hour light/dark cycle with a constant temperature of (23±2° C.) and a humidity of (55±15%). The animals were anesthetized, guided by ultrasound, and VX2 hepatoma cells were introduced into the liver by minimally invasive approach, After monitoring New Zealand rabbits for 14 days, and tumor size was monitored with ultrasound; rabbits were randomly divided into 4 groups of 10 animals in each group according to tumor size and body weight, and drug treatment was started on day 15. Rabbits in the control group were intravenously injected with 0.9% sodium chloride injection through the ear vein. […] All New Zealand rabbits were treated for 4 weeks.
Tumor volume was estimated using the formula V=π(a×b^2)/6, where a and b were the longest and shortest diameters of the tumor measured using calipers. The weights of rabbits were monitored every 3-4 days during the experiment, and rabbited were sacrificed at the end of treatment; blood was collected, AST, ALT and CREA were tested, and the results are shown in Table 30. After anesthetizing each rabbit with Sutai 50+ tachypnosis 0.1 ml/kg, carotid artery phlebotomy was used as a termination procedure.

[2] = system: lead poisoning model rats; test: Therapeutic effect on lead poisoning in SD rats (Example 22); type: in vivo; conditions: EDTA 93.5 mg/kg, 4 weeks
Description: 30 SD rats with a body weight of 180˜200 g were taken; rats in the blank group freely drank deionized water containing 12.5 μL acetic acid for 3 weeks.
Rats in all groups were administrated once a day for 5 days/week for a total of 4 weeks. Rats in the blank group and model group were administered by intravenous drip with normal saline, and rats in treating groups were administered with normal saline solution of the corresponding drug; the administration volume of all groups was the same, with a dripping rate of 30 drops/min for a time of about 1 h, 1 time/day, 5 days/week; the grouping and administration dose of rats are shown in Table 14.

[3] = system: arsenic poisoning model rats; test: Therapeutic effect on arsenic poisoning in Wistar rats (Example 23); type: in vivo; conditions: EDTA 93.5 mg/kg
Description: 60 Wistar rats with a body weight of 180˜200 g were taken; rats in a blank group freely drank deionized water for 3 months; rats in arsenic poisoning groups freely drank an aqueous solution containing 100 mg/L·As2O3 for continuous 3 months, with a water mount of 20 ml per day, equivalent to an oral dose of 10 mg/kg, resulting in arsenic poisoning of drinking water-type in rats.
After successful molding, rats were divided to 10 rats in blank group and the remaining 50 rats. All groups were administrated once a day for 5 days/week for a total of 4 weeks. Rats in the blank group and the model group were administered by intravenous drip with normal saline, and rats in the treating group were administered with a normal saline solution of the corresponding drug; all groups had the same administration volume, a drip rate of 30 drops/min, and an dripping time of about 1 h, 1 time/d, 5 d/week, for a total of four weeks.
Urine was collected on day 1 and day 26, arsenic excretion was measured; blood and kidney of rats were taken 24 hours after the 26th day of administration, and blood arsenic concentrations and renal arsenic concentrations were detected with ICPMS; the results are shown in Table 18.

[4] = system: thallium poisoning model rats; test: Therapeutic effect on thallium poisoning in Wistar rats (Example 24); type: in vivo; conditions: EDTA 93.5 mg/kg, 4 weeks
Description: After successful molding, rats were divided to 10 rats in the blank group and the remaining 50 rats, and the grouping and administration dose are shown in Table 19. Rats in all groups were administrated once a day for 5 days/week for a total of 4 weeks.
Rats were sacrificed 24 h after administration on the last day; blood, kidney, brain and liver were taken, and thallium contents in these organs were detected by ICP-MS, and the test results are shown in Table 20.

[5] = system: mixed chromium, cobalt, nickel and manganese poisoning model rabbits; test: Therapeutic effect on mixed poisoning of chromium, cobalt, nickel and manganese in rabbits (Example 26); type: in vivo, New Zealand rabbits; conditions: EDTA 93.5 mg/kg, 3 days of treatment
Description: 40 New Zealand rabbits with a weight of 1.5˜2.0 kg were taken, and normal saline was injected intravenously at the ear margin of rabbits of the blank group for 5 days. A mixed solution containing 5 mg/ml CrCl3, 3 mg/ml CoCl2, 1 mg/ml NiCl2 and 2 mg/ml MnCl2 was injected intravenously at the ear margin of rabbits of poisoning groups with a dose of 2 ml/kg for 5 days, and observed for 25 days, thus resulting in mixed poisoning models of chromium, cobalt, nickel and manganese in New Zealand rabbits.
After successful molding, there were 8 rabbits in the blank group and 24 rabbits in mixed poisoning groups. Rabbits in all groups were given once daily for 3 days. Rabbits in the blank group and the model group were administered by intravenous dripping with normal saline, and rabbits in the treating groups were administered with a normal saline solution containing the corresponding drug. The administration volume of all groups was the same, with a dripping rate of 30 drops/min, an administration time of about 2 h, 1 time/day for 3 days; the grouping and administration dose of New Zealand rabbit in different groups were shown in Table 21. 24-hour urine was collected every day for a total of 3 days, and the total amounts of chromium, cobalt, nickel and manganese excreted through urine during the 3 days were calculated, as shown in Table 22.

Q: With `N.N.[Cl][Pt][Cl]` [Cisplatin, cisplatin] as the molecule, how does the ALT [1] read?
A: 86.68 ± 26.88 U/L

Q: What about the AST [1] of the same molecule?
A: 89.20 ± 13.66 U/L

Q: And the CREA [1]?
A: 470.35 ± 85.57 µmol/L

Q: Which results are given for `O=C(O)CN(CCN(CC(=O)O)CC(=O)O)CC(=O)O` [EDTA, ethylenediaminetetraacetate]?
A: Blood concentration of Ca2+ [2]: 89.31 ± 5.28 µg/g; Blood concentration of Cu2+ [2]: 754.21 ± 70.59 µg/g; Blood concentration of Fe3+ [2]: 194.72 ± 19.29 µg/g; Blood concentration of Mg2+ [2]: 43.61 ± 3.32 µg/g; Blood concentration of Zn2+ [2]: 2942.15 ± 176.08*^ΔΔ μg/g; Lead in blood [2]: 1218.69 ± 129.33 µg/L; Lead in kidney [2]: 16.54 ± 4.67 ^ μg/g; Lead in liver [2]: 0.47 ± 0.28 µg/g; Total arsenic in urine on day 1 [3]: 3.27 ± 1.84 µg; Total arsenic in urine on day 26 [3]: 3.18 ± 1.35 µg; Arsenic in blood ([3]; 24 hours after the 26th day): 1362.98 ± 319.58 µg/L; Arsenic in kidney ([3]; 24 hours after the 26th day): 6.08 ± 2.35 µg/g; Thallium in blood [4]: 836.69 ± 168.83 µg/L; Thallium in kidney [4]: 12.54 ± 4.48 µg/g; Thallium in liver [4]: 4.27 ± 2.18 µg/g; Chromium in urine, total excreted in 3 days [5]: 178.48 ± 42.69 µg; Cobalt in urine, total excreted in 3 days [5]: 162.28 ± 44.97 ^ μg; Manganese in urine, total excreted in 3 days [5]: 169.52 ± 32.63 ^ μg; Nickel in urine, total excreted in 3 days [5]: 188.28 ± 63.17 ^ μg

— patent publication US20250295628A1 (priority 2022, published 2025)
